From patent US20210198277A1, “AMINE-SUBSTITUTED ARYL OR HETEROARYL COMPOUNDS” (Epizyme, Inc., priority 2016, published 2021)

Target: T1, EHMT2 (Homo sapiens, UniProt Q96KQ7)
T1 construct: host or cells: MDA-MB-231
T1 sequence (Q96KQ7 1-1210): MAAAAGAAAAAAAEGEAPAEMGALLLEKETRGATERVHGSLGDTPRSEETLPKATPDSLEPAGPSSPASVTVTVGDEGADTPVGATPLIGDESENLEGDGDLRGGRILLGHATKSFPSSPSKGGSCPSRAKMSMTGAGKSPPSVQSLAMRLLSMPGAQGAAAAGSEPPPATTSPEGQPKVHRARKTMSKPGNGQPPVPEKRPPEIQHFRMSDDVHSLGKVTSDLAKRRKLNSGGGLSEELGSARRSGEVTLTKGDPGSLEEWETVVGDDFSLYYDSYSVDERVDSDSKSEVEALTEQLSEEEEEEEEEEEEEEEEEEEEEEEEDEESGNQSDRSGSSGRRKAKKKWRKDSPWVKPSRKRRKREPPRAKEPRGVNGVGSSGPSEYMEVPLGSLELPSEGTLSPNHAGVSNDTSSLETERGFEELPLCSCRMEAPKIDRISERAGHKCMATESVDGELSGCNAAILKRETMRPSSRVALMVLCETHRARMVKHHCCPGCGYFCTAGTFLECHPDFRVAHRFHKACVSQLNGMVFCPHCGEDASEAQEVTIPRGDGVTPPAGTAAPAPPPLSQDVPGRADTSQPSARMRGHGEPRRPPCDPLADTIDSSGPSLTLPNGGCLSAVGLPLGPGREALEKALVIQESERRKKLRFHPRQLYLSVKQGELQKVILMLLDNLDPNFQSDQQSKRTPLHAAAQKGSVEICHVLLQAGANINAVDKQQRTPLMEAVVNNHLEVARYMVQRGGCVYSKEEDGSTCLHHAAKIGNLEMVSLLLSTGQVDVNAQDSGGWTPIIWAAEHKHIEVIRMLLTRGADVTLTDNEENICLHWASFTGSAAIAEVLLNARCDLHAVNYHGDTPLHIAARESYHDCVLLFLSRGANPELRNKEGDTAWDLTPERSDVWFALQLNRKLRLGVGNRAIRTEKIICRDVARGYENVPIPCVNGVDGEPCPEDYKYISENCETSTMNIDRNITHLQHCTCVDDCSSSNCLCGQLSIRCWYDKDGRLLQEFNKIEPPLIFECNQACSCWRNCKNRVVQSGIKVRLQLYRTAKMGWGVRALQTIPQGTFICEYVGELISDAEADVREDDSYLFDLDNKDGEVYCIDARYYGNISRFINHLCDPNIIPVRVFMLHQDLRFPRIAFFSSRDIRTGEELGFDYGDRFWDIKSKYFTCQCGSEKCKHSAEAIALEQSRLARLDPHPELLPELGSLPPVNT
Experiment: MDA-MB-231 H3K9me2 in-cell Western assay (EHMT2 ICW)
Type: cell-based
Settings: Table III; MDA-MB-231 H3K9me2 in-cell Western; read-out: EHMT2 ICW (IC50 μM)
In short: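 IC50 values came from a variable-slope four-parameter fit on triplicate wells, using % inhibition from the 800/700 nm infrared signal ratio (anti-H3K9me2 versus DRAQ5 DNA stain). Before fixation and immunostaining, MDA-MB-231 cells, 3,000 per well, were exposed to compound for 48 h at 37 °C.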

IC50 [µM]	SMILES
1 to 10	CNc1cc(C)nc(Nc2cccc(OCCCN3CCCC3)c2)n1 [Compound 391]
1 to 10	COc1ccc(Nc2nccc(NCC(F)(F)F)n2)cc1OCCCN1CCCC1 [Compound 392]
0.1 to 1	CNc1ccnc(Nc2ccc(OC)c(OCC3CCN(C)C3)c2)n1 (centres unmarked) [Compound 393]
> 10	CCNC(=O)c1cccc(Nc2nccc(NC)n2)c1 [Compound 394]
> 10	CCNC(=O)c1cc(Nc2nccc(NC)n2)ccc1OC [Compound 395]
> 10	CCNC(=O)c1cc(Nc2nccc(NC)n2)ccc1Cl [Compound 396]
> 10	CNc1ccnc(Nc2cccc(N3CCC(N(C)C)C3)c2)n1 (centres unmarked) [Compound 397]
1 to 10	CNc1ccnc(Nc2ccc(Cl)c(OCCCN3CCCC3)c2)n1 [Compound 398]
> 10	CNc1ccnc(Nc2cccc(N3CCC(N)C3)c2)n1 (centres unmarked) [Compound 400]
> 10	COc1ccc(Nc2ccc3cn(C)nc3n2)cc1OCCCN1CCCC1 [Compound 402]
> 10	CNc1ccnc(Nc2ccc3cn(CCN(C)C)nc3c2)n1 [Compound 404, N^2-(2-(2-(dimethylamino)ethyl)-2H-indazol-6-yl)-N^4-methylpyrimidine-2,4-diamine]
> 10	CNc1ccnc(Nc2ccc3cn(CCCN(C)C)nc3c2)n1 [Compound 405]
0.1 to 1	CNc1ccnc(Nc2ccc(OC)c(COC3CCN(C)C3)c2)n1 (centres unmarked) [Compound 407, N^2-(4-methoxy-3-(((1-methylpyrrolidin-3-yl)oxy)methyl)phenyl)-N^4-methylpyrimidine-2,4-diamine]
0.1 to 1	CCN1CCC(COc2cc(Nc3nccc(NC)n3)ccc2OC)C1 (centres unmarked) [Compound 408, N^2-(3-((1-ethylpyrrolidin-3-yl)methoxy)-4-methoxyphenyl)-N^4-methylpyrimidine-2,4-diamine]
0.1 to 1	CNc1ccnc(Nc2ccc(OC)c(OCC3CCN(C(C)C)C3)c2)n1 (centres unmarked) [Compound 409, N^2-(3-((1-isopropylpyrrolidin-3-yl)methoxy)-4-methoxyphenyl)-N^4-methylpyrimidine-2,4-diamine]
> 10	CNc1ccnc(Nc2ccc(OC)c(OCC3CCN(CCOC)C3)c2)n1 (centres unmarked) [Compound 410, N^2-(4-methoxy-3-((1-(2-methoxyethyl)pyrrolidin-3-yl)methoxy)phenyl)-N^4-methylpyrimidine-2,4-diamine]
0.1 to 1	CNc1ccnc(Nc2ccc(OC)c(OCC3CCN(C4CC4)C3)c2)n1 (centres unmarked) [Compound 411, N^2-(3-((1-cyclopropylpyrrolidin-3-yl)methoxy)-4-methoxyphenyl)-N^4-methylpyrimidine-2,4-diamine]
1 to 10	CNc1ccnc(Nc2ccc(OC)c(OCC3CCCN(C)C3)c2)n1 (centres unmarked) [Compound 412, N^2-(4-methoxy-3-((1-methylpiperidin-3-yl)methoxy)phenyl)-N^4-methylpyrimidine-2,4-diamine]
0.1 to 1	CNc1cc(C)nc(Nc2ccc(OC)c(OCC3CCCN(C)C3)c2)n1 (centres unmarked) [Compound 413, N^2-(4-methoxy-3-((1-methylpiperidin-3-yl)methoxy)phenyl)-N^4,6-dimethylpyrimidine-2,4-diamine]
0.1 to 1	CNc1ccnc(Nc2ccc(OC)c(OCCCN3CC(O)C3)c2)n1 [Compound 414, 1-(3-(2-methoxy-5-((4-(methylamino)pyrimidin-2-yl)amino)phenoxy)propyl)azetidin-3-ol]
1 to 10	CCCN1CCC(COc2cc(Nc3nccc(NC)n3)ccc2OC)C1 (centres unmarked) [Compound 420, N^2-(4-methoxy-3-((1-propylpyrrolidin-3-yl)methoxy)phenyl)-N^4-methylpyrimidine-2,4-diamine]
1 to 10	CNc1cc(C)nc(Nc2ccc(OC)c(COC3CCN(C)C3)c2)n1 (centres unmarked) [Compound 421, N^2-(4-methoxy-3-(((1-methylpyrrolidin-3-yl)oxy)methyl)phenyl)-N^4,6-dimethylpyrimidine-2,4-diamine]
1 to 10	CNc1ccnc(Nc2ccc(OC)c(OCC3CCN(CC4CC4)C3)c2)n1 (centres unmarked) [Compound 422, N^2-(3-((1-(cyclopropylmethyl)pyrrolidin-3-yl)methoxy)-4-methoxyphenyl)-N^4-methylpyrimidine-2,4-diamine]
